Experimental data reported in patent US12384787B2, “Fused heterocyclic compounds and their use as pest control agents” (PI INDUSTRIES LTD., priority 2019, dated 2025).

What was measured:
Assay type in all cases: in vivo
Plutella xylostella = Plutella xylostella leaf dip method (cabbage leaves); details: foliar, second instar larvae, 72 h after release, dead and moribund combined, compared to untreated control, read-out: Percent mortality
Nilaparvata lugens = Nilaparvata lugens seedling dip method (paddy seedlings); details: third instar nymphs, 72 h after release, dead and moribund combined, compared to untreated control, read-out: Percent mortality
Procedure: Seedling dip method was used for screening, wherein the required quantity of the test compounds were weighed and dissolved in surfactant solution, kept on a Vortex at 2000 rpm with zirconia beads for 90 min for proper mixing, then diluted with 0.01% Triton-X solution to the desired test concentration. Paddy seedlings were dipped in the solution for 10 seconds, shade dried for 20 min and then transferred into glass tubes with the roots kept in water. Known numbers of third instar nymphs were released into the test tubes and the tubes were kept in the plant growth chamber at a temperature of 25° C. and relative humidity of 75%. Observations on dead, moribund and living nymphs were recorded at 72 h after the release. Percent mortality was calculated by combining dead and moribund nymphs and comparing the result to the one of the untreated control.

Spodoptera litura = Spodoptera litura diet incorporation method; details: third instar larvae, 96 h after release, dead and moribund combined, compared to untreated control, read-out: Percent mortality
Procedure: Diet incorporation method was used, in which the required quantity of test compounds were weighed and dissolved in surfactant solution, kept on vortex for 90 min for proper mixing, then diluted with water to the desired test concentrations. The solutions were incorporated into semi-synthetic diet when the temperature reached approximately 50° C. in the bioassay containers. The diet and solution was stirred thoroughly for properly mixing and was left to cool for 30 min. The solidified diet was cut into equal pieces, and then each piece was transferred into one cell of the bio-assay trays. A single starved third instar larva was released into each of these cells of the bioassay trays and the tray was covered with a lid. The bio-assay trays were kept under laboratory conditions at a temperature of 25° C. and relative humidity of 70%. Observations on dead, moribund and alive larvae were recorded at 96 h after the release of the larvae. Percent mortality was calculated by combining dead and moribund larvae and comparing the result to the one of the untreated control.

Measured: mortality at 300 ppm

CCS(=O)(=O)c1nn2cc(-c3ccc(Cl)cc3)cnc2c1-c1nc2cc(C(F)(F)F)cnc2n1C [Compound 63, 2-(6-(4-Chlorophenyl)-2-(ethylsulfonyl)pyrazolo[1,5-a]pyrimidin-3-yl)-3-methyl-6-(trifluoromethyl)-3H-imidazo[4,5-b]pyridine]
> 70%: all assays above
